Measurements as given in publication PMC6124754, “Characterization of new, efficient Mycobacterium tuberculosis topoisomerase-I inhibitors and their interaction with human ABC multidrug transporters” (PLoS ONE, 2018).
pIC50: −log10 of the molar value. In brackets after ≈: the same amount, converted by molar mass. Entries after “also recorded” stand apart in the source; their conditions may differ. Where two headings read alike, the source gives them in different places.

Assays:
[1] = test system: HFF, HEK293 and A431 cell lines; format: cell-based, human
Procedure: (§1) The toxic effects of the selected MtTopo-I inhibitory Vichem compounds were tested in three cell lines, HFF (human foreskin fibroblast), HEK293 (human embryonic kidney) and A431 (human epidermoid carcinoma) cell lines, obtained from ATCC. Establishment of ABC transporter-expressing A431cell lines was achieved by retroviral transduction of the cells as described previously.
(§2) For cytotoxicity measurements the cells were seeded in a 96-well culture plate at 5,000 cells/well (A431, HEK293) or 6000 cells/well (HFF) and incubated overnight. […] After 72 hours of incubation viability was assessed by PrestoBlue® assay (Invitrogen). IC50 values were obtained by sigmoidal curve fitting in the GraphPad Prism software. All experiments were performed in triplicates and repeated at least in three independent experiments. DMSO, used as solvent of the compounds, had no effect on viability at the applied concentration.

human ABCG2 [2] = molecular target: T1, human ABCG2 (Homo sapiens, UniProt Q9UNQ0); assay: Cellular transport assay, DCV or mitoxantrone uptake in ABCG2-overexpressing PLB cells; format: cell-based; parameters: expressed in transfected cells; host or cells: PLB (human lymphoblastoid) cells, lentiviral transduction; settings: S6 summary table; also: key: 0: no observed effect; +: effect observed in the assay; In the ATPase assay showing only inhibition, the - sign is applied
T1 sequence (Q9UNQ0 1-655): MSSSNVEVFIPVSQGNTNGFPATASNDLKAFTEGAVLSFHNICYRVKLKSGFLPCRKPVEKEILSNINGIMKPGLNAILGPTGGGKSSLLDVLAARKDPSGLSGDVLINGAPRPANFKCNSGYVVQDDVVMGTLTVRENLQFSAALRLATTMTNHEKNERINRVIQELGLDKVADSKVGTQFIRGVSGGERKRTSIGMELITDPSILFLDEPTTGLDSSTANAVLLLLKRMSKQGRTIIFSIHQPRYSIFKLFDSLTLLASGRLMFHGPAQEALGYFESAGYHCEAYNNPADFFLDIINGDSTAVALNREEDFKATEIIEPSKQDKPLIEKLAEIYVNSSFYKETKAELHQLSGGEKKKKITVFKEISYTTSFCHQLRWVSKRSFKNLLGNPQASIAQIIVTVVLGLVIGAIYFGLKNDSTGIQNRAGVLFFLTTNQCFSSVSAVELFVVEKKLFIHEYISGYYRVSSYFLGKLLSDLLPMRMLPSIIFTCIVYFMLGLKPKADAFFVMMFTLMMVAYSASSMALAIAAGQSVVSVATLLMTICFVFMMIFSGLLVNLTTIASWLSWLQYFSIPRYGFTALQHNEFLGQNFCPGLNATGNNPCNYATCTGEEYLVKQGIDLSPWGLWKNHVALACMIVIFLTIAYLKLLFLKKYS
Procedure: (§3) For cellular transport assays, mammalian PLB (lymphoblastoid) cell lines, overexpressing ABCB1 or ABCG2 were used. The parental PLB cell line was purchased from ATCC, and ABCB1 or ABCG2 overexpressing cell lines were established by using lentiviral vectors for human ABC transporters as described earlier in [29]. The transport assays were carried out in 96-well plates. 1x10^5 cells were incubated in the presence of 0.1 μM Calcein-AM or 1 μM DCV (Dye Cycler Violet) for the ABCB1 and for the ABCG2 assays, respectively. The assay was performed in HPMI medium (NaCl 120 mM, KCl 5 mM, MgCl2 0.4 mM, CaCl2 0.04 mM, HEPES 10 mM, NaHCO3 10 mM, glucose 10 mM, Na2HPO4 5 mM; pH 7.4). Fluorescence of the cells was detected using a Victor X3 plate reader (for Calcein, exc. at 485 nm, em. at 535 nm) or the Enspire 2300 (Perkin Elmer) plate reader (for DCV, exc. at 360 nm, em. at 440 nm). Kinetics of fluorescence intensity changes were analyzed to determine relative inhibition, compared to that of a reference agent, providing full inhibition of the ABC transporter. Two of the Vichem compounds examined (VCC979812 and VCC38977) were not compatible with the DCV uptake assay because of their intrinsic fluorescence, therefore for these two compounds ABCG2 transport inhibition was characterized by following mitoxantrone uptake. Mitoxantrone uptake was measured by flow cytometry (BD FACSCanto at 633 nm) by 20 minutes incubation in the presence of 7.5 μM mitoxantrone. Each compound was measured in at least three independent experiments with three parallels in each case. DMSO, used as a solvent of compounds had no effect in this assay at the applied concentration.

human ABCB1 [3] = molecular target: T2, human ABCB1 (Homo sapiens, UniProt P08183); assay: Vanadate-sensitive ATPase activity assay in Sf9 membrane vesicles, ABCB1; format: biochemical; parameters: made in house; host or cells: Sf9 insect cells (baculovirus), membrane vesicles; ABCB1 ATPase Vmax: unit not given here; settings: for Effect on ABCB1-ATPase activity (in words): Sf9 membrane vesicles, 0.1–10 μM for the stimulation in b53; for ABCB1 ATPase Vmax: vanadate-sensitive ATPase, from dose-response curves, basal 5.7±0.7; for ABC transporter ATPase assay, ABCB1 (summary): S6 summary table; as to ABC transporter ATPase assay, ABCB1 (summary): key: 0: no observed effect; +: effect observed in the assay; In the ATPase assay showing only inhibition, the - sign is applied
[4] = test system: ABCB1-overexpressing A431 cell line; settings: 72 h; for Resistance modulation by ABCB1 (fold increase in IC50): ABCB1-expressing versus parental A431 cells; for ABC transporter modified cytotoxicity, ABCB1 (summary): human
human ABCB1 [5] = molecular target: T2, human ABCB1; assay: Cellular transport assay, Calcein-AM uptake in ABCB1-overexpressing PLB cells; format: cell-based; settings: S6 summary table; also: key: 0: no observed effect; +: effect observed in the assay; In the ATPase assay showing only inhibition, the - sign is applied
Procedure: as §3

MtTopo-I = molecular target: T3, MtTopo-I (Mycobacterium tuberculosis, UniProt P9WG49); assay: DNA relaxation assay of supercoiled pUC18 DNA by MtTopo-I; format: biochemical; settings: minimum concentration providing complete inhibition
T3 construct: made in house; host or cells: E. coli

[6] = test system: ABCG2-overexpressing A431 cell line; settings: 72 h; for Resistance modulation by ABCG2 (fold increase in IC50): ABCG2-expressing versus parental A431 cells; for ABC transporter modified cytotoxicity, ABCG2 (summary): human
H37Rv Mtb strain = assay: H37Rv growth inhibition, resazurin reduction microplate assay (REMA); format: cell-based, Mycobacterium tuberculosis; settings: for MIC90: Mycobacterium tuberculosis, H37RV, read-out: MIC90 of compounds in H37Rv growth test; for Toxicity in H37Rv assay (summary): S6 summary table; for Growth inhibition of H37Rv mycobacteria (in words): tested up to 20 μM
parental A431 cell line = assay: Cytotoxicity, PrestoBlue 72 h, parental A431; format: cell-based, human; settings: Non-toxic = not toxic up to 20 μM, read-out: Toxicity in parental A431 cell line, IC50
Procedure: as §1, §2

HFF cell line = assay: Cytotoxicity, PrestoBlue 72 h, HFF; format: cell-based, human; settings: Non-toxic = not toxic up to 20 μM, read-out: Toxicity in HFF cell line, IC50
Procedure: as §1, §2

HEK293 cell line = assay: Cytotoxicity, PrestoBlue 72 h, HEK293; format: cell-based, human; settings: for pIC50: Homo sapiens, HEK293, Non-toxic = not toxic up to 20 μM, read-out: Toxicity in HEK293 cell line, IC50
Procedure: as §1, §2

human ABCG2 [7] = molecular target: T1, human ABCG2; assay: Vanadate-sensitive ATPase activity assay in Sf9 membrane vesicles, ABCG2; format: biochemical; parameters: made in house; host or cells: Sf9 insect cells (baculovirus), membrane vesicles; ABCG2 ATPase, concentration at Vmax: unit not given here; settings: for ABC transporter ATPase assay, ABCG2 (summary): S6 summary table; for ABCG2 ATPase Vmax: vanadate-sensitive ATPase, from dose-response curves, basal 22±1.4
[8] = minimum concentration providing 90% growth inhibition, 20 to 0.04 μM, N.I. = no inhibition observed up to 20 μM
[9] = concentration at which Vmax was seen

T3 sequence (P9WG49 whole entry): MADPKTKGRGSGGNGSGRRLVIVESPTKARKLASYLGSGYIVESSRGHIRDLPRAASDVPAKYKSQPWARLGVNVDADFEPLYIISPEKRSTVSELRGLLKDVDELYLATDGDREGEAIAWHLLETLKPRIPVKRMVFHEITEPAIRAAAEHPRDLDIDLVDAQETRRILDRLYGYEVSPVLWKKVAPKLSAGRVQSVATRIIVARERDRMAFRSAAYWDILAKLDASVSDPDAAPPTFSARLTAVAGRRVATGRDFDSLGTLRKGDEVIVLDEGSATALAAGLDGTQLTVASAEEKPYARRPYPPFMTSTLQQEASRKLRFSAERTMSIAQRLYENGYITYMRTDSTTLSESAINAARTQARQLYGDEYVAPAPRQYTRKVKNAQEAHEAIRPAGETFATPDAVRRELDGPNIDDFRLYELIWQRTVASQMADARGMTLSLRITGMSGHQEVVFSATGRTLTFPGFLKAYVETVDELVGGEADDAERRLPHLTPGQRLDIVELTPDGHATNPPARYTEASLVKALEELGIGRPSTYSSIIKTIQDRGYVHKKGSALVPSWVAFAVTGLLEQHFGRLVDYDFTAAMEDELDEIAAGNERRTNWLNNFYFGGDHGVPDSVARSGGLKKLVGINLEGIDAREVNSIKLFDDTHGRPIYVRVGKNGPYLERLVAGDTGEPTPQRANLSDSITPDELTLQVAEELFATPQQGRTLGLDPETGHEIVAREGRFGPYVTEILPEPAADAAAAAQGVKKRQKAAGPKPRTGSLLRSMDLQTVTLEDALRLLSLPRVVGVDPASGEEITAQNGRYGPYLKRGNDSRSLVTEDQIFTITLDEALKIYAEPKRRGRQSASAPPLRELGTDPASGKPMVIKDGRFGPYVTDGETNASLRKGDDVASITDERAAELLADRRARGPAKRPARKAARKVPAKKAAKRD
T2 sequence (P08183 whole entry): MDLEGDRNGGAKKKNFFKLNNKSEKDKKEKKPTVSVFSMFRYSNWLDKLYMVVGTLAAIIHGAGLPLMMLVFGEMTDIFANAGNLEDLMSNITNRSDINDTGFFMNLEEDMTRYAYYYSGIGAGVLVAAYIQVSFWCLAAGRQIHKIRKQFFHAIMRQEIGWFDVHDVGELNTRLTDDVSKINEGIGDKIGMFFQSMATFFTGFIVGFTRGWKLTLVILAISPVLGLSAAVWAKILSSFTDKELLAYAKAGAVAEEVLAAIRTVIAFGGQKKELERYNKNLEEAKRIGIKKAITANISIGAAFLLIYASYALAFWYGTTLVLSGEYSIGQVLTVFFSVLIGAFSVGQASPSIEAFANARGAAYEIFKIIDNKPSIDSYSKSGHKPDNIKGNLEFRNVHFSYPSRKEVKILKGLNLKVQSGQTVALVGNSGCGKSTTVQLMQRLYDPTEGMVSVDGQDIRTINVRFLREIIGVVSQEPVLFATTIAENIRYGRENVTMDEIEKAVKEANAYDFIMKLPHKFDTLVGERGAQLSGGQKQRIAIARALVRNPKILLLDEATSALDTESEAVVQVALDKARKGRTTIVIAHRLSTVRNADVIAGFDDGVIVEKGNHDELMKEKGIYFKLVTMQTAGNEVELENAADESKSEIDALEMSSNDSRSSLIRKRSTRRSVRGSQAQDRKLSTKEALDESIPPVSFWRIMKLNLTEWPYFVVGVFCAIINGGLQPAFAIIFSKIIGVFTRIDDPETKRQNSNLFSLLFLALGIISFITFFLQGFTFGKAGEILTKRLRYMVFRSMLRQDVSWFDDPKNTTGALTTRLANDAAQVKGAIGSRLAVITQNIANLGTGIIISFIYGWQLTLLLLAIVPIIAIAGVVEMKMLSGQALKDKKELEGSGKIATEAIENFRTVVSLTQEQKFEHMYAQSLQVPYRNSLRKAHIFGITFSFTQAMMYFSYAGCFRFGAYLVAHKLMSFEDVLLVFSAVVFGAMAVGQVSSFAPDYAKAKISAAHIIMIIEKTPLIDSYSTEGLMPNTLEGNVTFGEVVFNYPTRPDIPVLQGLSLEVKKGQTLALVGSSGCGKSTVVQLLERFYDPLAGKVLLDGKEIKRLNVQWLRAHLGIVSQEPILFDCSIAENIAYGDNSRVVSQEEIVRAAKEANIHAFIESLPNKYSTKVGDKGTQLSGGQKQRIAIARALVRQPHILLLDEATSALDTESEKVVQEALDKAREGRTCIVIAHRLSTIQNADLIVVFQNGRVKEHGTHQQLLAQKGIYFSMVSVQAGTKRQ

| SMILES | Toxicity in human cell lines (in words) [1] | Toxicity in mammalian cell lines (summary) [1] | ABC transporter transport assay, ABCG2 (summary) (human ABCG2 [2]) | Effect on ABCB1-ATPase activity (in words) (human ABCB1 [3]) | ABCB1 ATPase Vmax (human ABCB1 [3]) | Resistance modulation by ABCB1 (fold increase in IC50) [4] | ABC transporter modified cytotoxicity, ABCB1 (summary) [4] | ABC transporter transport assay, ABCB1 (summary) (human ABCB1 [5]) | Complete inhibition of MtTopoI (MtTopo-I) [µM] | Resistance modulation by ABCG2 (fold increase in IC50) [6] | ABC transporter modified cytotoxicity, ABCG2 (summary) [6] | MIC90 (H37Rv Mtb strain; [8]) [µM] | Toxicity in H37Rv assay (summary) (H37Rv Mtb strain) | Growth inhibition of H37Rv mycobacteria (in words) (H37Rv Mtb strain) | pIC50 (parental A431 cell line; Homo sapiens, A-431, 72 h) | pIC50 (parental A431 cell line) | pIC50 (HFF cell line; Homo sapiens, HFF) | pIC50 (HFF cell line) | ABC transporter ATPase assay, ABCG2 (summary) (human ABCG2 [7]) | ABCG2 ATPase Vmax (human ABCG2 [7]) | also measured |
| --- | --- | --- | --- | --- | --- | --- | --- | --- | --- | --- | --- | --- | --- | --- | --- | --- | --- | --- | --- | --- | --- |
| CN(C)CCCNc1nc(/C=C/c2ccc(Cl)cc2)nc2cc3ccccc3cc12 [VCC450822] | toxic | + | 0 | well measurable stimulatory effect; also recorded: slight stimulation of the ABCB1-ATPase activity at lower concentrations; also recorded: strongly inhibited ATPase activity at higher concentrations; also recorded: slightly increased | 10.5±1.5 | 0.97±0.05 | 0 | 0 | 10.0 | 1.0±0.03 | 0 | 5.1 (≈ 2.13 µg/mL) | + | effectively inhibited the growth | > 5.30 | 5.46 | > 5.30 | 5.30 to 5.60 | 0 | 23.3±2 | Resistance modulation by ABCB1 (fold increase in IC50) ([4]; listed as VCC480522): no difference; Resistance modulation by ABCG2 (fold increase in IC50) ([6]; listed as VCC480522): no difference; pIC50 (HEK293 cell line): 4.70 to 5.00 |
| COc1ccc(/C=C/c2nc(NCCCN(C)C)c3cc4ccccc4cc3n2)cc1 [VCC340963] | toxic | + | + | no measurable effect | 7.9±1.2 |  | 0 | + | 10 to 25 |  | 0 | 2.5 (≈ 1.03 µg/mL) | + | effectively inhibited the growth | > 5.30 | 5.49 | > 5.30 | 5.30 to 5.60 | 0 | 22.2±4 | ABC transporter ATPase assay, ABCB1 (summary) (human ABCB1 [3]): 0; pIC50 (HEK293 cell line): 4.70 to 5.00; Effect on ABCG2-ATPase activity (in words) (human ABCG2 [7]; Sf9 membrane vesicles, 0.1–10 μM for stimulation, 50 μM for inhibition): no measurable effect |
| CC(C)CCNc1nc2cc3ccccc3cc2nc1NCCC(C)C [VCC979812] |  |  | + | well measurable stimulatory effect; also recorded: slightly increased | 15.8±2 | 1.1±0.08 | 0 | + | 10 | 1±0.1 | 0 |  | 0 |  | 4.72 |  | 4.70 |  | 0 | 22±3 | Toxicity in mammalian cell lines (summary) ([1]; human, 72 h): 0/slight; ABC transporter ATPase assay, ABCB1 (summary) (human ABCB1 [3]): +; ABCB1 ATPase, concentration at Vmax (human ABCB1 [3]; [9]): 12.5 µM; MIC90 of compounds in H37Rv growth test (H37Rv Mtb strain; [8]): N.I.; Toxicity in HEK293 cell line, IC50 (HEK293 cell line; Non-toxic = not toxic up to 20 μM): Non-toxic; ABCG2 ATPase, concentration at Vmax (human ABCG2 [7]; [9]): 0.4 |
